Values of other authors, collected in US20260014083A1, “Orally Administrable Pharmaceutical Dosage Form Comprising Lanthanum and Its Use in a Method Of Treatment of Hyperoxaluria” (AMGMT, priority 2022, published 2026).
Where two headings read alike, the source gives them in different places. Blank lines part the entries; values can stand above or below the molecule they belong to.

Columns and labels:
[1] = in vivo
[2] = system: rat; settings: oxalate loading
[3] = system: patients with enteric hyperoxaluria

gastro-intestinal absorption [1]: 0.01%
Molecule: [La] [lanthanum]

Molecule: O=C([O-])[O-].O=C([O-])[O-].O=C([O-])[O-].[La+3].[La+3] [Lanthanum carbonate, lanthanum carbonate]
CaOx crystalluria [2]: decrease
calciuria [2]: minor increase
oxaluria [2]: decrease
phosphaturia [2]: striking increase

Molecule: O=C([O-])[O-].[Ca+2] [calcium carbonate]
calciuria (current powerful phosphate binders): increased calciuria

calciuria (in vivo): increased calciuria
Molecule: [Al] [aluminum]

B1: reloxaliase: an oral enzyme therapeutic (Allena Pharmaceuticals) (protein, UniProt O34714 1-385, looked up)
Oxalate decarboxylase OxdC: MKKQNDIPQPIRGDKGATVKIPRNIERDRQNPDMLVPPETDHGTVSNMKFSFSDTHNRLEKGGYAREVTVRELPISENLASVNMRLKPGAIRELHWHKEAEWAYMIYGSARVTIVDEKGRSFIDDVGEGDLWYFPSGLPHSIQALEEGAEFLLVFDDGSFSENSTFQLTDWLAHTPKEVIAANFGVTKEEISNLPGKEKYIFENQLPGSLKDDIVEGPNGEVPYPFTYRLLEQEPIESEGGKVYIADSTNFKVSKTIASALVTVEPGAMRELHWHPNTHEWQYYISGKARMTVFASDGHARTFNYQAGDVGYVPFAMGHYVENIGDEPLVFLEIFKDDHYADVSLNQWLAMLPETFVQAHLDLGKDFTDVLSKEKHPVVKKKCSK
modifications: crosslinked enzyme crystals
least square mean treatment difference ([3]; versus placebo, p=0.004): −14.3%
mean reduction in average 24-hour urinary oxalate excretion ([3]; weeks 1-4, placebo 9.7%): 22.6%
